Assay [1] has as its target T1, αβ1E182Gγ GABAAR (Rattus norvegicus, UniProt P15431+P62813, E207G).
T1 construct: expressed in transfected cells; host or cells: HEK293
Description: Patch clamp, HEK293, mutant GABAAR. It is filed as cell-based. The note with it: HEK293, read-out: Glutamate potentiation of GABA currents, % of control, normalized to respective wild-type receptor. The procedure: (§1) Fig. 4 Property characterization of glutamate binding sites in HEK cells expressing wild-type or mutated αβγ GABAARs. a, b The effects of electrostatic charge and/or size of the pocket-forming residues on glutamate-induced functional modulation.
(§2) HEK293 cells were cultured in DMEM (Invitrogen) supplemented with 10% fetal bovine serum. Cells were grown to 40–60% confluence and transiently transfected using Lipofectamine 2000 (Invitrogen) with 1:0.5–1 plasmid/lipid ratio. Cells were transfected with a pBK-CMV expression vector containing a rat recombinant GABAAR α, β or γ subunits. Co-transections were done with a plasmid ratio of 1:1 αβ and 2:2:1 for αβγ subunit combinations, respectively. pcDNA3.1-GFP was also co-transfected along with GABAAR subunits as a transfected marker in order to facilitate the visualization of the transfected cells during electrophysiological experiments. Cells were re-plated on glass coverslips after 15–20 h transfection and were cultured for an additional 15–24 h before whole-cell patch-clamp recordings.
(§3) The site-directed mutagenesis of α, β or γ subunits were performed by using the QuikChange method (Stratagene). […] Wild-type or mutant subunits were transfected in HEK293 cells and subjected to electrophysiology examinations.
(§4) Whole-cell patch-clamp recordings were performed under voltage-clamp mode using an Axopatch 200B or 1D patch-clamp amplifier (Molecular Devices) on HEK293 cells and cultured neurons. Whole-cell currents were recorded at a holding potential of −60 mV, and signals were filtered at 2 kHz, digitized at 10 kHz (Digidata 1322 A). Recording pipettes (3–5 MΩ) were filled with the intracellular solution that contained (mM): CsCl 140, HEPES 10, Mg-ATP 4, QX-314 5, pH 7.20; osmolarity, 290–295 mOsm. BAPTA (10 mM) was added in the intracellular solution. The coverslips were continuously superfused with the extracellular solution containing (mM): NaCl 140, KCl 5.4, HEPES 10, MgCl2 1.0, CaCl2 1.3, glucose 20, pH 7.4; osmolarity, 305–315 mOsm. […] Dose–response curves were created by fitting data to Hill equation: I = Imax/[1 + (EC50/[A])^n], where I is the current, Imax is the maximum current, [A] is a given concentration of agonist, n is the Hill coefficient. […] All experiments were performed at room temperature.
A general note: Patch clamp records ionic current or voltage across a cell membrane.

In assay [2] the target is T2, αβ3E182Gγ GABAAR (Rattus norvegicus, UniProt P62813+P63079, E207G).
T2 construct: expressed in transfected cells; host or cells: HEK293
Description: Patch clamp, HEK293, mutant GABAAR. It counts as cell-based. The note with it: HEK293, read-out: Glutamate potentiation of GABA currents, % of control, normalized to respective wild-type receptor. As for the experimental part: as §1, §2, §3, §4

The target in assay [3] is T3, α2K104Dβγ GABAAR (Rattus norvegicus, UniProt P23576+P63138, K132D).
T3 construct: expressed in transfected cells; host or cells: HEK293
Description: Patch clamp, HEK293, mutant GABAAR. The note with it: HEK293, read-out: Glutamate potentiation of GABA currents, % of control, normalized to respective wild-type receptor. It is filed as cell-based. The procedure:
as §1, §2, §3, §4

The target in assay [4] is T4, α2K155Dβγ GABAAR (Rattus norvegicus, UniProt P23576+P63138, K183D).
T4 construct: expressed in transfected cells; host or cells: HEK293
Description: Patch clamp, HEK293, mutant GABAAR. It is filed as cell-based. The settings on record: HEK293, read-out: Glutamate potentiation of GABA currents, % of control, normalized to respective wild-type receptor. As for the experimental part: as §1, §2, §3, §4

Assay [5] addresses T5, α2E137Gβγ GABAAR (Rattus norvegicus, UniProt P23576+P63138, E165G).
T5 construct: expressed in transfected cells; host or cells: HEK293
Description: Patch clamp, HEK293, mutant GABAAR. It counts as cell-based. The note with it: HEK293, read-out: Glutamate potentiation of GABA currents, % of control, normalized to respective wild-type receptor. The procedure:
as §1, §2, §3, §4

For assay [6], the system named is GABAAR-mediated currents, WT mice. Description: Whole-cell recording of CA1 neurons, hippocampal slices of WT mice. It is filed as cell-based, mouse. The settings on record: L-Glu 50 µM. As for the experimental part:
We next determined if glutamate-mediated allosteric potentiation of GABAAR function was impaired in hippocampal slices acutely prepared from postnatal 90-day-old KI mice. Whole-cell recordings of CA1 neurons were performed under voltage clamp configuration at a holding potential of −60 mV.
Mice were deeply anesthetized with urethane (1.5 g/kg, i.p.) and transcardially perfused with ice cold sucrose hypertonic cutting solution (in mM: KCl 3.0, NaH2PO4.H2O 1.25, NaHCO3 26, Na-vitamin C 0.4, Na-lactate 2.0, Na-pyruvate 2.0, D-glucose 10.0, Sucrose 220, CaCl2 0.1, MgCl2 2, MgSO4 4.0, pH 7.4, 290–300 mOsm/l) prior to decapitation as described previously.[47] After decapitation, the brain was rapidly removed and transferred to the ice cold cutting solution bubbled with 95% O2 and 5% CO2, and acute coronal brain slices (400 μm) were prepared on a Leica vibratome (VT1200S, Germany). All brain slices were placed into a standard artificial cerebral spinal fluid (ACSF) (in mM: NaCl 124, KCl 2.8, NaH2PO4.H2O 1.25, NaHCO3 26, Na-vitamin C 0.4, Na-lactate 2.0, Na-pyruvate 2.0, D-glucose 10.0, CaCl2 2, MgSO4 1.2, pH 7.4, 290–300 mOsm/l) incubated at 35 °C for 2 h prior to recording. Field excitatory postsynaptic potential (fEPSP) recordings were performed under current-clamp mode using HEKA EPC10 patch-clamp amplifier (HEKA Electronic, Lambrecht/Pfalz, Germany). […]

Assay [7] has as its target T6, α1 β2^E181G γ2 GABAAR (Rattus norvegicus, UniProt P62813+P63138, E206G).
T6 construct: expressed in transfected cells; host or cells: HEK293
Description: Patch clamp, HEK293, mutant GABAAR. It is filed as cell-based. The settings on record: normalized to wild-type α1β2γ2; for Relative potentiation: glutamate 100 μM co-applied with GABA 1 μM.
Description: (§5) The subunits are color-coded individually. The boxed regions are further enlarged in the middle panels, highlighting the predicted glutamate binding pocket in the α+ and β− interface, just below the loop C. […] Relative potentiation was obtained by normalizing potentiation observed in the mutated receptor to that in the respective wild-type receptor.
(§6) To positively confirm one of these two putative binding sites involved in glutamate binding, we performed a systemic mutational analysis of critical amino acids around these two sites followed by electrophysiological characterizations of their impacts on glutamate potentiation in HEK293 cells expressing wild-type or mutated α1β2γ2 GABAARs (Table 1).
as §2, §3, §4

Assay [8] deals with T7, α1^K104D β2 γ2 GABAAR (Rattus norvegicus, UniProt P62813+P63138, K131D).
T7 construct: expressed in transfected cells; host or cells: HEK293
Description: Patch clamp, HEK293, mutant GABAAR. It is filed as cell-based. The note with it: Glu 1 mM; GABA 1 µM; normalized to wild-type α1β2γ2.
Description: as §5, §6, §2, §3, §4

Assay [9] deals with T8, rat α1β2γ2 GABAARs (Rattus norvegicus, UniProt P62813+P63138).
T8 construct: expressed in transfected cells; host or cells: HEK293
Description: Whole-cell patch clamp of GABA-evoked currents, HEK293 cells expressing wild-type α1β2γ2. It is filed as cell-based. As for the experimental part:
Co-expression of the α and β subunits is the minimum requirement for a functional recombinant GABAAR expressed in a heterologous cell line such as HEK293, while co-expression of the α, β and γ subunits is required for the recombinant receptor with a full pharmacological profile.[2] We therefore transiently expressed either rat α1β2 or α1β2γ2 subunits in HEK293 cells.
as §2, §4

This note sets out measurements from article PMC9527238, “Glutamate and GABAA receptor crosstalk mediates homeostatic regulation of neuronal excitation in the mammalian brain” (Signal Transduction and Targeted Therapy, 2022).

T6 sequence (P62813 28-455): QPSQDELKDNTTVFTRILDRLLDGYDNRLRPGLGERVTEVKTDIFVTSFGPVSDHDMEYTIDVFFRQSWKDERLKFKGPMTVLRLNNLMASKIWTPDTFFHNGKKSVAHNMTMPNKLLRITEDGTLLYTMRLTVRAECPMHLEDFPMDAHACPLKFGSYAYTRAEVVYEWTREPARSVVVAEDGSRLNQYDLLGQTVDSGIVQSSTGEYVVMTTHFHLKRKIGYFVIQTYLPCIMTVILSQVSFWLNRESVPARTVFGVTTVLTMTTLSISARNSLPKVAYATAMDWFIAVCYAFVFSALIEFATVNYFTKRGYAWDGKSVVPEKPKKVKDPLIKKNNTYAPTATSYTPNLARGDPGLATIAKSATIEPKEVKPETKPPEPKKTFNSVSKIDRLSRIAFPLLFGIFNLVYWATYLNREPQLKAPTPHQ
T6 sequence (P63138 26-474 E206G): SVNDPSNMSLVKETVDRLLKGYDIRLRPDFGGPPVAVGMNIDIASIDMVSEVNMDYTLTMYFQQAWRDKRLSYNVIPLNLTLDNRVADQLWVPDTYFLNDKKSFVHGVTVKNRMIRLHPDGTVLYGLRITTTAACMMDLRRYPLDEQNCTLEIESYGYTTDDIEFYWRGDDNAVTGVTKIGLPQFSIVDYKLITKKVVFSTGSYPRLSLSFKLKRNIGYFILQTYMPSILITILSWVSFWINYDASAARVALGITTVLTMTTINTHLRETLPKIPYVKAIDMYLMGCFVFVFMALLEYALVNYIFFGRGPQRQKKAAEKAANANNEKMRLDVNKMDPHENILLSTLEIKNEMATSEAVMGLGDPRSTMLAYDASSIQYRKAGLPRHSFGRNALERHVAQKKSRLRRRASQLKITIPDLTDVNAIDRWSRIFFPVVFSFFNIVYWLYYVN
T6 sequence (P18508 39-466 partner): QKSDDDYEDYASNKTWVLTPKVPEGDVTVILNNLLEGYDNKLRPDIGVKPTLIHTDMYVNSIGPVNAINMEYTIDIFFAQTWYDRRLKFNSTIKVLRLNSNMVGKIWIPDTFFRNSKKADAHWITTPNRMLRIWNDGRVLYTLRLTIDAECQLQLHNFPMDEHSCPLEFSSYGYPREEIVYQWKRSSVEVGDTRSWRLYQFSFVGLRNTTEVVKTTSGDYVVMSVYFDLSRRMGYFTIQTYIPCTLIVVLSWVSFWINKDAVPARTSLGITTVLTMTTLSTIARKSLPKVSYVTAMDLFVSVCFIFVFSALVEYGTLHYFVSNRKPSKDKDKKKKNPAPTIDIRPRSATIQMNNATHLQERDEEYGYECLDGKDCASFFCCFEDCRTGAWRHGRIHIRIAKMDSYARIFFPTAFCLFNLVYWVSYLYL
T5 sequence (P23576 29-451 E165G): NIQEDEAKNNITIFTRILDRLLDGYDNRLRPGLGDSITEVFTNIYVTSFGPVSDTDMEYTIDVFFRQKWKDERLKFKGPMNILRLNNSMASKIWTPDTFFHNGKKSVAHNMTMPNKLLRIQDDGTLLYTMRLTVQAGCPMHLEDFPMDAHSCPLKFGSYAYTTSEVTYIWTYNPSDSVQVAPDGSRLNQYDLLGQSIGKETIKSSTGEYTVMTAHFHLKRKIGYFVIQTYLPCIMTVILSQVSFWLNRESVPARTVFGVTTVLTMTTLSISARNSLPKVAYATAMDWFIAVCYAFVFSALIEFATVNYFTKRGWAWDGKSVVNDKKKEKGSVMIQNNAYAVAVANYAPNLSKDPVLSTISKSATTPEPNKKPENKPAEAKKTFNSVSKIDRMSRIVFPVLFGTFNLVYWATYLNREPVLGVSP
T5 sequence (P63138 26-474): as the sequence (P63138 26-474 E206G) above, with G181E counted along it
T5 sequence (P18508 39-466 partner): as the sequence (P18508 39-466 partner) above
T3 sequence (P23576 29-451 K132D): as the sequence (P23576 29-451 E165G) above, with K104D, G137E counted along it
T3 sequence (P63138 26-474): as the sequence (P63138 26-474 E206G) above, with G181E counted along it
T3 sequence (P18508 39-466 partner): as the sequence (P18508 39-466 partner) above
T4 sequence (P23576 29-451 K183D): as the sequence (P23576 29-451 E165G) above, with G137E, K155D counted along it
T4 sequence (P63138 26-474): as the sequence (P63138 26-474 E206G) above, with G181E counted along it
T4 sequence (P18508 39-466 partner): as the sequence (P18508 39-466 partner) above
T1 sequence (P62813 28-455): as the sequence (P62813 28-455) above
T1 sequence (P15431 26-474 E207G): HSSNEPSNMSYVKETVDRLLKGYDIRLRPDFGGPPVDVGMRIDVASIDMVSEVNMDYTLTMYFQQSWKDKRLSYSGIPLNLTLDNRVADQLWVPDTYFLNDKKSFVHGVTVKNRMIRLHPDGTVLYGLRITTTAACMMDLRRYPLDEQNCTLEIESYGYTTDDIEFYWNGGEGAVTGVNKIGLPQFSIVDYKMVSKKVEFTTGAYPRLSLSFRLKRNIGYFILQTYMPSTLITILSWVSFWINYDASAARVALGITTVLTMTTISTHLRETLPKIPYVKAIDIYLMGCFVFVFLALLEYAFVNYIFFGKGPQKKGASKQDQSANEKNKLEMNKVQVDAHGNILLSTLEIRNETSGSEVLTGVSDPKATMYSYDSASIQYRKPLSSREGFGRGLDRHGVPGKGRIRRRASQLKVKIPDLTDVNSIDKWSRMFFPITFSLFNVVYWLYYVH
T1 sequence (P18508 39-466 partner): as the sequence (P18508 39-466 partner) above
T2 sequence (P62813 28-455): as the sequence (P62813 28-455) above
T2 sequence (P63079 26-473 E207G): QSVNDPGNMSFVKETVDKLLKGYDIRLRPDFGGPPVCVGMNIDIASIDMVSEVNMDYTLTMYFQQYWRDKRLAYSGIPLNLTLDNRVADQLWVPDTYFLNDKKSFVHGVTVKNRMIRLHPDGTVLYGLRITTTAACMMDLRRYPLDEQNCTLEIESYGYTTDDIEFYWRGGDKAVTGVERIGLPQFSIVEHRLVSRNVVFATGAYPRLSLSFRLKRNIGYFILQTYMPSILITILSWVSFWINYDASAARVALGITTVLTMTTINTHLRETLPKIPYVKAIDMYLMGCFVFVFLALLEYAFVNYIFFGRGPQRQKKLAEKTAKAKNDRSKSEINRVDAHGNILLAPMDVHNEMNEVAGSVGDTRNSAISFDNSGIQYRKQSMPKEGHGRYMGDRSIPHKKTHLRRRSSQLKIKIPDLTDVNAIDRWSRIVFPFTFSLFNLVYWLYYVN
T2 sequence (P18508 39-466 partner): as the sequence (P18508 39-466 partner) above
T8 sequence (P62813 28-455): as the sequence (P62813 28-455) above
T8 sequence (P63138 26-474): as the sequence (P63138 26-474 E206G) above, with G181E counted along it
T8 sequence (P18508 39-466 partner): as the sequence (P18508 39-466 partner) above
T7 sequence (P62813 28-455 K131D): as the sequence (P62813 28-455) above, with K104D counted along it
T7 sequence (P63138 26-474): as the sequence (P63138 26-474 E206G) above, with G181E counted along it
T7 sequence (P18508 39-466 partner): as the sequence (P18508 39-466 partner) above

Regarding `N[C@@H](CCC(=O)O)C(=O)O` [glutamate, Glutamate], the activity at 100 µM amounted to 2.4 ± 2% in [1] (Glu 100 μM); 2.3 ± 5% in [2] (Glu 100 μM); 2.7 ± 3.1% in assay [3] (Glu 100 μM); 6.3 ± 6.9% in assay [4] (Glu 100 μM); 0.3 ± 3.4% in assay [5] (Glu 100 μM). Moreover, the activity at 1000 µM in assay [1] (Glu 1 mM) was 7.6 ± 1%; in assay [2] (Glu 1 mM), 2.4 ± 7.9%; in [3] (Glu 1 mM) it was 15.1 ± 4.4%; in [4] (Glu 1 mM), 5.3 ± 2.1%; in [5] (Glu 1 mM), 5.7 ± 6.2%. The “GABAAR-mediated IPSC currents relative to baseline” value in [6] was found to be 153.0 ± 9.5%. The “Relative potentiation, % of control” value is 1.8 ± 9.6% in assay [7] (Glu 1 mM, GABA 1 µM) and 18.6 ± 6.3% in assay [8]. Further, the Relative potentiation in assay [7] amounted to 1.6 ± 11.6%; in assay [7] (listed as Glu), 1.6 ± 11.6%; in assay [9], 100.0%. Further, in assay [9], the “GABA currents in presence of ligand, compared with GABA alone” value is listed as 169.3 ± 6.9%.
